Test results taken from patent US20200323772A1, “TREATMENT OF INFLAMMATORY DISEASE USING INGESTIBLE DEVICE TO RELEASE IMMUNE MODULATOR” (Progenity, Inc., priority 2017, published 2020).

Experiments:
[1] = Tissue, plasma, rectal and GI content pharmacokinetics of tacrolimus, oral vs intra-cecal ingestible device (Example 10); parameters: species or system Yorkshire-Cross farm swine; conditions: in vivo
Protocol: The primary objective of this study was to compare the tissue, plasma, rectal sample, and GI content pharmacokinetics of tacrolimus through oral versus intra-cecal ingestible device delivery in normal Yorkshire-Cross farm swine.
(§1) No further randomization procedure was employed.
Animals in Group 1 received an ingestible device containing 0.8 mL of vehicle solution (80% alcohol, 20% HCO-60). Animals in Group 2 received orally […] liquid formulation of tacrolimus at 4 mg/0.8 mL per animal (Prograf: 5 mg/mL). Animals in Group 3 received intra-cecally an ingestible device containing tacrolimus at 1 mg in 0.8 mL per ingestible device. Animals in Group 4 received intra-cecally an ingestible device containing tacrolimus at 2 mg in 0.8 mL per ingestible device. Animals in Group 5 received intra-cecally an ingestible device containing tacrolimus at 4 mg in 0.8 mL per ingestible device. To control for potential confounding effects of the surgery, all groups fast on Day −11 at least 24 hr before being subjected to anesthesia followed by surgical placements of a cecal port by a veterinary surgeon at Day −10. All animals were fasted for at least 12 hr prior to dosing on Day 1. Animals were dosed via either intra-cecal dosing (IC) or oral dosing (PO) at Day 1 (between 6-8 p.m.). All animals resumed feeding at approximately 4 hours after dose ([…]. after dosing).
Animals in Group 1 (Vehicle Control) were administered a single intra-cecal ingestible device containing 0.8 mL Vehicle solution (80% alcohol, 20% castor oil (HCO-60) on Day 1. On Day −10 the animals were anesthetized, and a veterinary surgeon surgically placed an intra-cecal port in each animal. On Day 1, each animal was placed into a sling then a single intra-cecal ingestible device containing 0.8 mL vehicle solution (80% alcohol, 20% castor oil (HCO-60)) is introduced by the veterinary surgeon into the cecum via the cecal port in each animal. Following ingestible device placement, the animals were removed from the slings and placed back into their pens with water. All animals resumed feeding at approximately 4 hours after dose. […] A total of 60 samples were collected.
Approximately 200˜400 mg of rectal content were collected, if available, with a fecal swab (Copan Diagnostics Nylon Flocked Dry Swabs, 502CS01). The fecal swab was pre-weighed and weighed after collection in the collection tube (Sterile Tube and Cap No Media, PFPM913S), and the sample weight was recorded. The fecal swab was broken via the breakpoint, and was stored in the collection tube, and immediately frozen at −70° C. […] Immediately following euthanasia, tissue was collected.
For tissue necropsy, small intestine fluid and cecal fluid were collected separately from all the animals into two separate square plastic bottles, and stored at −20° C. The length and diameter of the cecum and the colon was measured from one animal in each group and recorded for reference. Tissues were collected for pharmacokinetic analyses and include mesenteric lymph nodes, a Peyer's Patch, and five gastrointestinal sections, including cecum, proximal colon, transverse colon, distal colon, and rectum. All samples were weighed, and the tissue sample weights were recorded. […] Around 3 grams of the total punched sample were collected into a pre-weighed 15-mL conical tube, and the tissue weight was recorded. […]

[2] = Pharmacokinetic study of oral vs intra-cecal tacrolimus: blood, GI tissue, luminal and rectal content concentrations (Example 13); parameters: species or system Yorkshire-Cross farm swine; conditions: in vivo, 0.09 mg/kg
Description: as §1

[3] = female, Yorkshire-Cross, pig, po
[4] = female, Yorkshire-Cross, pig, po, 12 h

luminal content (spiral, transverse, and distal colon) concentrations [1]: Significantly higher | mean concentration in the cecum tissue and the proximate colon tissue [1]: higher | tissue (spiral and transverse colon) concentrations [1]: Significantly higher | level in tissue ([1]; po): No measurable level | Kp at 12 h [2, 3]: 0 | Tissue (mean) (ng/g)/AUG(0-12 hr)(ng·hr/ml) Ratio [2, 4]: 0 | Tissue (mean) (ng/g)/Trough(12 hr)(ng/ml) Ratio [2, 4]: 0 | Trough (12 hr) [2, 4]: 0.568 ng/mL | concentration at 12 h ([2]; female, Yorkshire-Cross, pig, po, Trough (12 hr)): 0.568 ng/mL | AUC0-12 hours in the blood [2]: higher | mean concentration in the blood [2]: higher
Structure (SMILES): C=CC[C@@H]1/C=C(\C)C[C@H](C)C[C@H](OC)[C@H]2O[C@@](O)(C(=O)C(=O)N3CCCC[C@H]3C(=O)O[C@H](/C(C)=C/[C@@H]3CC[C@@H](O)[C@H](OC)C3)[C@H](C)[C@@H](O)CC1=O)[C@H](C)C[C@@H]2OC [tacrolimus]
systemic concentrations [1, 3]: equivalent to low dose IC group (0.02 mg/kg)
